Laboratory results: patent publication US20230143751A1, “Aromatic Compound And Use Thereof In Preparing Antineoplastic Drugs” (Shanghai Zheye Biotechnology Co. Ltd., priority 2020, published 2023)
Like-named read-outs stand apart in the source and are kept apart here.

How the values were obtained:
Format in all cases: cell-based
[1] = system: NCI-H358; assay: Cell proliferation inhibitory activity on NCI-H358, 3D model test (agarose colony formation); conditions: for anti-cell proliferation activity against KRAS G12C mutant type cells NCI-H358 (in words): 3D model test; for IC50: Homo sapiens, NCI-H358, 3D agarose colony formation, NBT staining
Protocol: 100 μl of agarose gel with a high concentration was spread in a 96-well plate as the bottom agarose gel layer. Agarose with a low concentration and growth medium containing cells were mixed and then spread on the bottom agar layer, cooled and solidified, then incubated overnight at 37° C. Mother solutions were prepared from the test compounds by using DMSO, and then subjected to gradient elution with RPMI 1640 growth medium. The solutions of test compounds with different concentrations after gradient elution were added to the 96-well plate comprising an upper layer of agar gel-cells. Solvent control well was set up and the plate was incubated in a CO2 incubator. The drug-containing medium was changed during the incubation period and the cell growth situation was observed. After the incubation, the cells were stained with NBT and the number of cell colony formation was counted, and the IC50 values of the compounds inhibiting cell proliferation were derived.

[2] = system: MIA PaCa-2 cells; assay: Cell proliferation activity of MIA PaCa-2 by CellTiter-Glo reagent; conditions: 72 h, CellTiter-Glo; for IC50: Homo sapiens, MIA PaCa-2, read-out: IC50 value of cell proliferation inhibitory activity of the compound on MIA PaCa-2
Protocol: (§1) MIA PaCa-2 cells in exponential growth phase were digested with trypsin-EDTA, plated in a 96-well plate with 2000-3000 cells per well, and incubated overnight at 37° C. with 5% CO2. Mother solutions were prepared from the test compounds by using DMSO, subjected to gradient elution with DMEM growth medium, and then added into the 96-well plate and incubated in an incubator for 72 h at 37° C. with 5% CO2. After the incubation, CellTiter-Glo test reagent with an equal volume was added into each well and the obtained 96-well plate was incubated after shaking. The chemiluminescence values were determined by microplate reader, and the IC50 values of the test compounds inhibiting the proliferation of MIA PaCa-2 cells were fitted and calculated by GraphPad Prism software.
The test method of inhibitory activity was the same as that in Test 2 in “Biological Tests” part.

[3] = system: NCI-H358 cells; assay: Cell proliferation activity of NCI-H358 by CellTiter-Glo reagent; conditions: for IC50: read-out: IC50 value of cell proliferation inhibitory activity of NCI-H358
Protocol: as §1, with “NCI-H358” for “MIA PaCa-2”, “Mother solutions were prepared from the test compounds by using DMSO, subjected to gradient elution with DMEM growth medium, and then added into the 96-well plate and incubated in an incubator for 72 h at 37° C. with 5% CO2.” left out
The test method of inhibitory activity was the same as that in Test 3 in “Biological Tests” part.

[4] = Homo sapiens, NCI-H358, 72 h, 72 h, CellTiter-Glo, test 3
[5] = Homo sapiens, NCI-H358, test 4, method of test 3

| IC50 [1] [nM] | IC50 [2] [nM] | Structure (SMILES) | anti-cell proliferation activity against KRAS G12C mutant type cells NCI-H358 (in words) ([3]; 72 h, CellTiter-Glo) | also measured |
| --- | --- | --- | --- | --- |
| < 50 | < 50 | C=CC(=O)N1CCN(c2nc(=O)n(-c3c(C)ccnc3C(C)C)c3nc(-c4ccccc4C=C)c(F)cc23)[C@@H](C)C1 [Compound 3-1] | – | anti-cell proliferation activity against KRAS G12C mutant type cells NCI-H358 (in words) [1]: significant anti-cell proliferation activity; anti-cell proliferation activity against KRAS G12C mutant type cells MIA PaCa-2 (in words) [2]: significant anti-cell proliferation activity |
| – | < 50 | C=CC(=O)N1C[C@H](C)N(c2nc(=O)n(-c3c(C)ccnc3C(C)C)c3nc(-c4c(F)cccc4C=C)c(Cl)cc23)[C@@H](C)C1 [Compound 3-8] | – | – |
| < 50 | < 50 | [2H]C([2H])=Cc1cccc(F)c1-c1nc2c(cc1F)c(N1CCN(C(=O)C=C)C[C@@H]1C)nc(=O)n2-c1c(C([2H])([2H])[2H])ccnc1C(C)C [Compound 4-3] | – | – |
| – | – | [2H][C@]1(C)CN(C(=O)C=C)CCN1c1nc(=O)n(-c2c(C)ccnc2C(C)C)c2nc(-c3c(F)cccc3C=C)c(Cl)cc12 [Compound 3-49] | significant anti-cell proliferation activity | IC50 [3, 4]: < 50 nM |
| < 50 | – | [2H]C([2H])=Cc1cccc(F)c1-c1nc2c(cc1F)c(N1CCN(C(=O)C(=C)F)C[C@@H]1C)nc(=O)n2-c1c(C([2H])([2H])[2H])ccnc1C(C)C [Compound 4-11] | – | – |
| – | – | C=CC(=[18O])N1CCN(c2nc(=O)n(-c3c(CC)ccnc3C(C)C)c3nc(-c4c(F)cccc4C=C)c(Cl)cc23)[C@@H](C)C1 [Compound 3-8MIS] | significant anti-cell proliferation activity | IC50 [3, 5]: < 50 nM |
| – | – | C=CC(=[18O])N1CCN(c2nc(=O)n(-c3c(C)ccnc3C(C)C)c3nc(-c4c(F)cccc4C=C)c(Cl)cc23)[C@@H](C)C1 [Compound 3-5MIS] | significant anti-cell proliferation activity | IC50 [3, 5]: < 50 nM |
| < 50 | < 50 | [2H]C([2H])([2H])c1ccnc(C(C)C)c1-n1c(=O)nc(N2CCN(C(=O)C=C)C[C@@H]2C)c2cc(F)c(-c3ccccc3C=C)nc21 [Compound 4-23] | – | – |
| – | – | [2H]C([2H])=Cc1ccccc1-c1nc2c(cc1Cl)c(N1CCN(C(=O)C=C)C[C@@H]1C)nc(=O)n2-c1c(C)ccnc1C(C)C [Compound 3-16M] | significant anti-cell proliferation activity | IC50 [3, 4]: < 50 nM; cell proliferation inhibitory activity on NCI-H358 compared with the corresponding compound with axial chiral S configuration (in words) ([3]; NCI-H358): significantly better |
| < 50 | < 50 | [2H]C([2H])=Cc1ccccc1-c1nc2c(cc1F)c(N1CCN(C(=O)C=C)C[C@@H]1C)nc(=O)n2-c1c(C)ccnc1C(C)C [Compound 3-23] | – | – |
| – | – | [2H]C([2H])=Cc1cccc(F)c1-c1nc2c(cc1Cl)c(N1CCN(C(=[18O])C=C)C[C@@H]1C)nc(=O)n2-c1c(CC)ccnc1C(C)C [Compound 3-12MIS] | significant anti-cell proliferation activity | IC50 [3, 5]: < 50 nM |
| < 50 | – | [2H]C([2H])=Cc1cccc(F)c1-c1nc2c(cc1F)c(N1[C@@H](C)CN(C(=O)C(=C)F)C[C@@H]1C)nc(=O)n2-c1c(C)ccnc1C(C)C [Compound 3-25] | – | – |
| < 50 | – | [2H]C([2H])=Cc1cccc(F)c1-c1nc2c(cc1F)c(N1CCN(C(=O)C(=C)F)C[C@@H]1C)nc(=O)n2-c1c(C(C)C)ccnc1C(C)C [Compound 5-11] | – | – |
| – | – | C=CC(=[18O])N1CCN(c2nc(=O)n(-c3c(C)ccnc3C(C)C)c3nc(-c4ccccc4C=C)c(Cl)cc23)[C@@H](C)C1 [Compound 3-1MIS] | significant anti-cell proliferation activity | IC50 [3, 5]: < 50 nM |
| – | – | C=CC(=[18O])N1C[C@H](C)N(c2nc(=O)n(-c3c(C)ccnc3C(C)C)c3nc(-c4c(F)cccc4C=C)c(Cl)cc23)[C@@H](C)C1 [Compound 3-7MIS] | significant anti-cell proliferation activity | IC50 [3, 5]: < 50 nM |
| – | – | C=CC(=[18O])N1CCN(c2nc(=O)n(-c3c(CC)ccnc3C(C)C)c3nc(-c4ccccc4C=C)c(Cl)cc23)[C@@H](C)C1 [Compound 3-4MIS] | significant anti-cell proliferation activity | IC50 [3, 5]: < 50 nM |
| < 50 | < 50 | [2H]C([2H])=Cc1ccccc1-c1nc2c(cc1Cl)c(N1CCN(C(=O)C=C)C[C@@H]1C)nc(=O)n2-c1c(C)ccnc1C(C)C [Compound 3-24] | – | – |

| IC50 [1] [nM] | IC50 [2] [nM] | Structure (SMILES) | anti-cell proliferation activity against KRAS G12C mutant type cells NCI-H358 (in words) ([3]; 72 h, CellTiter-Glo) | also measured |
| --- | --- | --- | --- | --- |
| – | – | C=CC(=O)N1CCN(c2nc(=O)n(-c3c(CC)ccnc3C(C)C)c3nc(-c4ccccc4C=C)c(Cl)cc23)[C@@H](C)C1 [Compound 3-4MIS] | – | IC50 ([3]; 72 h, CellTiter-Glo, test 3): < 50 nM |
| – | – | [2H]C([2H])=Cc1cccc(F)c1-c1nc2c(cc1Cl)c(N1[C@@H](C)CN(C(=[18O])C=C)C[C@@H]1C)nc(=O)n2-c1c(C)ccnc1C(C)C [Compound 3-11MIS] | significant anti-cell proliferation activity | IC50 [3, 5]: < 50 nM |
| < 50 | – | [2H]C([2H])=Cc1ccccc1-c1nc2c(cc1F)c(N1CCN(C(=O)C(=C)F)C[C@@H]1C)nc(=O)n2-c1c(C([2H])([2H])[2H])ccnc1C(C)C [Compound 4-16] | – | – |
| – | – | [2H]C([2H])=Cc1ccccc1-c1nc2c(cc1Cl)c(N1[C@@H](C)CN(C(=O)C=C)C[C@@H]1C)nc(=O)n2-c1c(CC)ccnc1C(C)C [Compound 2-3] | significant anti-cell proliferation activity | – |
| < 50 | – | [2H]C([2H])=Cc1cccc(F)c1-c1nc2c(cc1F)c(N1CCN(C(=O)C(=C)F)C[C@@H]1C)nc(=O)n2-c1c(C)ccnc1C(C)C [Compound 3-27] | – | – |
| < 50 | < 50 | [2H]C([2H])=Cc1ccccc1-c1nc2c(cc1Cl)c(N1CCN(C(=O)C=C)C[C@@H]1C)nc(=O)n2-c1c(C(C)C)ccnc1C(C)C [Compound 5-8] | – | – |
| < 50 | < 50 | C=CC(=O)N1CCN(c2nc(=O)n(-c3c(C)ccnc3C(C)C)c3nc(-c4c(F)cccc4C=C)c(F)cc23)[C@@H](C)C1 [Compound 3-5] | – | anti-cell proliferation activity against KRAS G12C mutant type cells NCI-H358 (in words) [1]: significant anti-cell proliferation activity; anti-cell proliferation activity against KRAS G12C mutant type cells MIA PaCa-2 (in words) [2]: significant anti-cell proliferation activity |
| – | – | C=CC(=[18O])N1C[C@H](C)N(c2nc(=O)n(-c3c(C)ccnc3C(C)C)c3nc(-c4ccccc4C=C)c(Cl)cc23)[C@@H](C)C1 [Compound 3-3MIS] | significant anti-cell proliferation activity | IC50 [3, 5]: < 50 nM |
| – | – | [2H]/C=C(\[2H])C(=O)N1CCN(c2nc(=O)n(-c3c(C)ccnc3C(C)C)c3nc(-c4c(F)cccc4C=C)c(Cl)cc23)[C@@H](C)C1 [Compound 3-51] | significant anti-cell proliferation activity | IC50 [3, 4]: < 50 nM |
| < 50 | < 50 | C=CC(=O)N1CCN(c2nc(=O)n(-c3c(C(C)C)ccnc3C(C)C)c3nc(-c4ccccc4C=C)c(Cl)cc23)[C@@H](C)C1 [Compound 5-24] | – | – |
| < 50 | – | [2H]C([2H])=Cc1cccc(F)c1-c1nc2c(cc1F)c(N1[C@@H](C)CN(C(=O)C(=C)F)C[C@@H]1C)nc(=O)n2-c1c(C([2H])([2H])[2H])ccnc1C(C)C [Compound 4-9] | – | – |
| < 50 | < 50 | [2H]C([2H])=Cc1cccc(F)c1-c1nc2c(cc1F)c(N1CCN(C(=O)C=C)C[C@@H]1C)nc(=O)n2-c1c(C(C)C)ccnc1C(C)C [Compound 5-3] | – | – |
| – | – | [2H]C([2H])=Cc1cccc(F)c1-c1nc2c(cc1Cl)c(N1CCN(C(=[18O])C=C)C[C@@H]1C)nc(=O)n2-c1c(C)ccnc1C(C)C [Compound 3-9MIS] | significant anti-cell proliferation activity | IC50 [3, 5]: < 50 nM |
| – | – | C=CC(=O)N1CCN(c2nc(=O)n(-c3c(C)ccnc3C(C)C)c3nc(-c4c(F)cccc4C=C)c(Cl)cc23)[C@@H](C)C1 [Example 3-12P] | – | IC50 ([3]; 72 h, CellTiter-Glo, test 3): > 50 nM |
| < 50 | – | [2H]C([2H])=Cc1cccc(F)c1-c1nc2c(cc1F)c(N1[C@@H](C)CN(C(=O)C(=C)F)C[C@@H]1C)nc(=O)n2-c1c(C(C)C)ccnc1C(C)C [Compound 5-9] | – | – |
| – | – | [2H]/C=C(\[2H])C(=O)N1CCN(c2nc(=O)n(-c3c(CC)ccnc3C(C)C)c3nc(-c4c(F)cccc4C=C)c(Cl)cc23)[C@@H](C)C1 [Compound 2-8] | significant anti-cell proliferation activity | IC50 [3, 4]: < 50 nM |
